In ChEMBL document CHEMBL5325484, “Quinolinetrione-tacrine hybrids as multi-target-directed ligands against Alzheimer's disease” (Bioorg Med Chem, 2023):

Assays:
[1] = target: Cholinesterase (Homo sapiens, UniProt P06276); test: Inhibition of human serum BChE using butyrylthiocholine iodide as substrate preincubated with compound for 20 mins followed by substrate addition and measured after 240 sec by spectrophotometer based Ellman's method; assay type: cell-free
[2] = target: Acetylcholinesterase (Homo sapiens, UniProt P22303); test: Inhibition of recombinant human AChE using acetylthiocholine iodide as substrate preincubated with compound for 20 mins followed by substrate addition and measured after 240 sec by spectrophotometer based Ellman's method
Chain of Acetylcholinesterase (P22303 whole entry): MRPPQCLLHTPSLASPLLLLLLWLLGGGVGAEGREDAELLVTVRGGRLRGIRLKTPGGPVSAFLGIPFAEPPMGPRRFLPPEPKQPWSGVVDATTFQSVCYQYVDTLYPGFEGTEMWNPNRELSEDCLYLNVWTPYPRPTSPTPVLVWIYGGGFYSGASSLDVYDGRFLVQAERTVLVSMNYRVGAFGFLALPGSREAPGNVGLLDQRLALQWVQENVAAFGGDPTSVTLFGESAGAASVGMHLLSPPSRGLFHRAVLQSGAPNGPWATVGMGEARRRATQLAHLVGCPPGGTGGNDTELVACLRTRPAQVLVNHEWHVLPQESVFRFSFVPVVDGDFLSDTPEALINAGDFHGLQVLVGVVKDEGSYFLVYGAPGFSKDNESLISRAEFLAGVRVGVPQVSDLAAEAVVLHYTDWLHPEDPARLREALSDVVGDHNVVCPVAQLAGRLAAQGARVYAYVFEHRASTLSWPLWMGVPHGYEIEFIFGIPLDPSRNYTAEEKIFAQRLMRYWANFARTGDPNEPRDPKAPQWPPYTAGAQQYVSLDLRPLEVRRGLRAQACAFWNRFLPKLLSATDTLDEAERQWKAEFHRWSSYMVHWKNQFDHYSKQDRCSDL

[3] = tested on: HepG2; test: Cytotoxicity against human HepG2 cells assessed as reduction in cell viability at 1 uM incubated for 24 hrs by MTT assay; assay type: toxicity, cell-based; settings: hepg2, 24 h
[4] = tested on: HepG2; test: Cytotoxicity against human HepG2 cells assessed as reduction in cell viability at 10 uM incubated for 24 hrs by MTT assay relative to control; assay type: toxicity, cell-based; settings: hepg2, 24 h
[5] = tested on: HepG2; test: Cytotoxicity against human HepG2 cells assessed as reduction in cell viability at 100 uM incubated for 24 hrs by MTT assay; assay type: toxicity, cell-based; settings: hepg2, 24 h

Chain of Cholinesterase (P06276 whole entry): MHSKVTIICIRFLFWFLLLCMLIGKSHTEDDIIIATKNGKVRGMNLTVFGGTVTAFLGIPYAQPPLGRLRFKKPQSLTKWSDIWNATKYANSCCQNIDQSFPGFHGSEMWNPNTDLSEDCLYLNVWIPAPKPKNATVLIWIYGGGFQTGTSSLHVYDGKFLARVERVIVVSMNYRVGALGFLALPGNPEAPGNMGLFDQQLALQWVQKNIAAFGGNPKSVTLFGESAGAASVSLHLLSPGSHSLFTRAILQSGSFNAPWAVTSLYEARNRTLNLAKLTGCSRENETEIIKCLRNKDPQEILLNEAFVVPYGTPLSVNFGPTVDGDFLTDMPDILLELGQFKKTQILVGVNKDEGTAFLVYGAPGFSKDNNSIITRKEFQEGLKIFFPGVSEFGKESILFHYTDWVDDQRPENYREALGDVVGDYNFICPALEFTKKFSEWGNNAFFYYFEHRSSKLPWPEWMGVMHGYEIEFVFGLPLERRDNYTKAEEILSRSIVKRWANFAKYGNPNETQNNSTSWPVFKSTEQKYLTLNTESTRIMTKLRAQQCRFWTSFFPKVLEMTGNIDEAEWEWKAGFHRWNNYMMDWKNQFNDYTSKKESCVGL

| Compound | IC50 [1] [nM] | IC50 [2] [nM] | Activity [3] | Activity [4] [%] | Activity [5] |
| --- | --- | --- | --- | --- | --- |
| Cc1cc(=O)[nH]c2c1C(=O)C(NCCCNc1c3c(nc4cc(Cl)ccc14)CCCC3)=CC2=O | 1340 | 11.1 | Non-Toxic | 50 | Toxic |
| Cc1cc(=O)[nH]c2c1C(=O)C(NCCCCNc1c3c(nc4cc(Cl)ccc14)CCCC3)=CC2=O | 2830 | 5.58 | Non-Toxic | 50 | Toxic |
| Cc1cc(=O)[nH]c2c1C(=O)C(NCCCCNc1c3c(nc4ccccc14)CCCC3)=CC2=O | 109 | 58.3 | Non-Toxic | 14 | Toxic |
| Cc1cc(=O)[nH]c2c1C(=O)C(NCCNc1c3c(nc4ccccc14)CCCC3)=CC2=O | 182 | 667 | Non-Toxic | 12 | Toxic |
| Cc1cc(=O)[nH]c2c1C(=O)C(NCCNc1c3c(nc4cc(Cl)ccc14)CCCC3)=CC2=O | 2100 | 121 | Non-Toxic | 50 | Toxic |
